According to patent US20030022920A1, “1-Methyl-4- (3-ethoxy-9H-thioxanthene-9-ylidene) -piperidine and its use as 5-HT2B/H1 receptor antagonist” (priority 2001, published 2003):

Assays:
human 5-HT2B receptor [1] = target: T1, human 5-HT2B receptor (Homo sapiens, UniProt P41595); assay: 5-HT2A/5-HT2B/5-HT2C receptor binding methods (counter screen for selectivity); parameters: expressed in transfected cells; host or cells: HEK293; conditions: human 5-HT2B in HEK293, [3H]-5HT approx. 0.4 nM, 120 min at 4° C.; result in words only
Procedure: 5-HT2A 5-HT2B 5-HT2C Receptor Binding Methods
5-HT2A receptors were labelled with [^3H]ketanserin in human cortex, in HEK293 cells expressing a cloned human 5-HT2A receptor and in HEK293 cells expressing the rat 5-HT2A receptor. For competition binding studies the ligand concentration was approximately 0.1 nM. For saturation binding studies concentrations of radioligand ranged from 0.01 nM to 2.0 nM. Assays were conducted in 0.5 ml of assay buffer (50 mM Tris-HCl, 4 mM calcium chloride, 0.1% by weight ascorbic acid) (pH 7.4 at 4° C.). Non-specifc binding was defined with […] unlabelled ketanserin. After a 60 min incubation at 32° C., membranes were harvested onto filters treated with 0.1% by weight of polyethylenimine and the bound radioactivity was determined.
Human 5-HT2B receptors were labelled in HEK293 cells as described above. except that the radioligand was [^3H]-5HT and that the assay buffer contained pargyline in a concentration of 10 mM and 0.1% by weight of ascorbic acid. […]
Competition radioligand binding data was analyzed using a four parameter logistic equation and iterative curve-fitting techniques to obtain estimates of the IC50 and Hill slope. Kd values, determined from saturation binding studies were then used to calculate inhibition dissociation constants (Ki).

[2] = target: T2, 5-HT receptors (the putative 5-HT2B) in rat stomach fundus longitudinal muscle (Rattus norvegicus, UniProt P30994); assay: 5-HT2B receptor tissue based functional assay in rat stomach fundus longitudinal muscle; type: biochemical; conditions: dextral shift of 5-HT agonist concentration-response curve, rat stomach fundus strips; result in words only
T2 construct: Strips of longitudinal muscle were obtained from the stomach fundus of male Sprague Dawley rats; from tissue; host or cells: rat stomach fundus longitudinal muscle strips
Procedure: 5-HT2B Receptor Tissue Based Functional Assay
The following describes an in vitro functional assay characterizing 5-HT receptors (the putative 5-HT2B) in rat stomach fundus longitudinal muscle (Baxter et al., Brit. J. Pharmacol. 1994, 112, 323-331).
Strips of longitudinal muscle were obtained from the stomach fundus of male Sprague Dawley rats. The mucosa was removed and the strips were suspended with a resting tension of 1 g in oxygenated (95% O2/5% CO2) Tyrode solution at 37° C. The composition of the Tyrode solution was as follows (mM): NaCl 136.9; KCl 2.7; NaH2PO4 0.4; MgCl2 1.0; glucose 5.6; NaHCO3 11.9; CaCl2 1.8. […]
Effects of drugs were monitored by tension transducers and recorded on polygraph recorders. Tissue response was measured as changes in isometric tension (g). The mean potency (EC50) and maximum response were evaluated by standard iterative curve fitting procedures.
Effects of antagonists were determined by measuring dextral shifts to the agonist concentration-response curve after equilibration of the antagonists for at least 1 h. Concentration ratios were measured at half maximal response levels and single concentration antagonist affinities were determined by the equation: [formula]

human 5-HT2B receptor [3] = target: T1, human 5-HT2B receptor; assay: Cloned human 5-HT2B receptor binding assay ([3H]-5HT, transfected HEK 293 cell membranes); parameters: expressed in transfected cells; host or cells: HEK 293 (transient transfection; membranes); conditions: [3H]5-HT 4 to 5 nM, 37° C. 30 min, result in words only
Procedure: Cloned Human 5-HT2B Receptor Binding Assay
The following describes an in vitro binding assay utilizing cloned 5-HT2B receptors radiolabelled with [^3H]-5HT.
HEK 293 cells transiently transfected with an expression plasmid pXMD1-hu2B encoding the human 5-HT2B receptor (see Schmuck et al., FEBS Lett., 1994, 342, 85-90) were used as described previously (Schmuck et al., Eur. J. Pharmacol., 1996, 8, 959-967). Two days after transfection cells were harvested, pelleted at 500 g for 5 min at 4° C., gently resuspended in ice-cold buffer1 (50 mM TRIS pH 7.7, 4 mM CaCl2) and homogenized using a Polytron PT 1200 tissue homogenizer (position 6 for 30 s). Cells were pelleted at 50,000 g, 4° C. for 10 min, washed with buffer1 and pelleted again. The final pellet was resuspended in incubation buffer (50 mM TRIS pH 7.7, 4 mM CaCl2, 10 μM pargyline and 0.1% by weight ascorbic acid). The binding assay consisted of 300 μl of membrane suspension (protein concentration =0.3 to 0.5 mg/ml), 150 μl of competing drug and 50 μl of [^3H]5-HT at a final concentration of 4 to 5 nM. […] Filters were counted by liquid scintillation. Non-specific binding was determined in the presence of an excess of 5-HT ([…]). […] Results are expressed as pK1 values. […]

[4] = target: T3, human Histamine H1 receptor (Homo sapiens, UniProt P35367); assay: Cloned human H1, H2 and H3 receptor binding assay ([3H]-mepyramine, transfected COS-7 cell homogenates); conditions: displacement of 1 nM [3H]-mepyramine, COS-7 homogenates; result in words only
T3 construct: expressed in transfected cells; host or cells: COS-7 (transient transfection; cell homogenates)
Procedure: Cloned Human H1, H2, and H3 Receptor Binding Assay
COS-7 cells were transiently transfected with an expression plasmid pCineohH1, pCineohH2, pCineohH3 and pCineohH4 encoding the human Histamine H1, H2, H3 or H4 receptor, respectively. Transfected cells were harvested after 48 h, homogenized in ice-cold 50 mM Na2/potassium phosphate buffer (pH 7.4) and used for radioligand binding studies. Cell homogenates (40-50 μg of protein) were incubated for 30 min at 25° C. in 50 mM Na2/potassium phosphate buffer (pH 7.4) in 400 μl with the various concentrations of either [^3H]-mepyramine, [^3H]-thiotidine, [^3H]-R-α-Methylhistamine, and [^3H]-pyramilamine for cells expressing recombinant human H1, H2, H3 and H4 receptors, respectively. The nonspecific binding was defined in the presence of 1 μM mianserin. In displacement studies, cell homogenated were incubated either with 1 nM [^3H]-mepyramine, 15 nM [^3H]-thiotidine, 0.5 nM [^3H]-R-α-Methylhistamine, or 15 nM [^3H]-pyramilamine and increasing concentrations of competing ligands. […] The bound radioactivity was seperated by filatration through Whatman GF/C filters that had been treated with 0.3% polyethyleneimine. Filters were washed twice in 3 ml of buffer and radioactivity retained on the filters was measured by liquid scinitllation counting. […]

human H1 receptor = target: T4, human H1 receptor (Homo sapiens, UniProt P35367); assay: Human histamine H1 receptor functional assay ([3H]-inositol phosphate formation in transfected HEK-293 cells); type: cell-based; conditions: histamine-stimulated [3H]-inositol phosphate formation, result in words only
T4 construct: expressed in transfected cells; host or cells: HEK-293 (transient transfection; whole cells)
Procedure: Human Histamine H1 Receptor Functional Assay
For the measurement of the [^3H]-inositol phosphate formation transiently transfected HEK-293 cells were seeded in 24 well plates and labeled to equilibrium with myo-[2-^3H]-inositol (3 iCi/ml) for an additional 24 hours in growth medium. The medium was aspirated and cells were washed once with 500 μl HBS-buffer (130 mM NaCl, 900 μM NaH2PO4, 800 μM MgSO4, 5.4 mM KCl, 1.8 mM CaCl2, 25 mM Glucose in 20 mM HEPES pH 7.4). Two min after applying 20 mM Li^+ the cells were stimulated by addition of histamine in HBS-buffer. The incubation was stopped by aspiration off the culture medium and the addition of cold 10 mM formic acid. [^3H]inositol phosphates were isolated by anion exchange chromatography (see Seuwen et al., 1988, EMBO J., 7, 161-168). The pKB value was calculated according to the formula: pKB=log (A′/A−1)−log [B], where A′/A is the ratio of the agonist concentrations (EC50 in the presence/EC50 in the absence of antagonist) and [B] the concentration of antagonist.

T1 sequence (P41595 whole entry): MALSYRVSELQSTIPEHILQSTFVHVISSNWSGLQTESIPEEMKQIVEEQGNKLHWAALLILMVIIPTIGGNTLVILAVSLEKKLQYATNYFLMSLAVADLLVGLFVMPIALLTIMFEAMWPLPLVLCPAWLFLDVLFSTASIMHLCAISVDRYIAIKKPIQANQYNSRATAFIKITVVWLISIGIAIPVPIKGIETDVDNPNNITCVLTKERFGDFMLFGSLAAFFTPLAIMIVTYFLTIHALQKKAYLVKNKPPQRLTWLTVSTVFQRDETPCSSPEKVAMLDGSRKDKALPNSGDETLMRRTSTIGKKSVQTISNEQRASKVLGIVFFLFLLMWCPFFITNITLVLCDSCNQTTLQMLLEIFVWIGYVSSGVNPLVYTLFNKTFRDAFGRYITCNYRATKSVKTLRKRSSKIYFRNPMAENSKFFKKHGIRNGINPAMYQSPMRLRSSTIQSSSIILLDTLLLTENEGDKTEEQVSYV
T3 sequence (P35367 whole entry): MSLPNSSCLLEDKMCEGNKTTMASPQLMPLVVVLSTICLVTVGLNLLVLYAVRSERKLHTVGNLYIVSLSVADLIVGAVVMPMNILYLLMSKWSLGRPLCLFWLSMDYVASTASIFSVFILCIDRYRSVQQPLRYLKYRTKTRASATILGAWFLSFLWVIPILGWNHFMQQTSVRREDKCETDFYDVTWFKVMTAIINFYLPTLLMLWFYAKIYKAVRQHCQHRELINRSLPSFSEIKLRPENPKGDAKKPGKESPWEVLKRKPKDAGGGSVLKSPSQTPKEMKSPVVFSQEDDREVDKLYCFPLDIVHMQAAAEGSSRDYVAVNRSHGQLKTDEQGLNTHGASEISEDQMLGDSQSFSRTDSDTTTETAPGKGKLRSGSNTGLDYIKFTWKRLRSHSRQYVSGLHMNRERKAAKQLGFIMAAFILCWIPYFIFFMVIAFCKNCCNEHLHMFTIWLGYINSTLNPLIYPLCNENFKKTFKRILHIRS
T4 sequence (P35367 whole entry): as above
T2 sequence (P30994 whole entry): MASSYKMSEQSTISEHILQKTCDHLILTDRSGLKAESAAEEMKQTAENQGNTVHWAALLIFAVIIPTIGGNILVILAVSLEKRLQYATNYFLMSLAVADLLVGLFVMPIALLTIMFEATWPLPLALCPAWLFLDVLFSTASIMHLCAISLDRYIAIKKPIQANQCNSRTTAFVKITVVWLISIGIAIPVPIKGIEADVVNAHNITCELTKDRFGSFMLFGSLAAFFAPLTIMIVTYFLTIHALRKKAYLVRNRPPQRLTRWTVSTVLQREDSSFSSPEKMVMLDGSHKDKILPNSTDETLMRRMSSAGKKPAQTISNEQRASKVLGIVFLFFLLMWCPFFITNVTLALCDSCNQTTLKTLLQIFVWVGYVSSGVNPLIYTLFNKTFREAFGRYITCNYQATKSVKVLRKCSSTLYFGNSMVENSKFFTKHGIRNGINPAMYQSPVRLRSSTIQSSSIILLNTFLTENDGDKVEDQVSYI

With `CCOc1ccc2c(c1)Sc1ccccc1C2=C1CCN(C)CC1` [1-methyl-4-(3-ethoxy-9H-thioxanthene-9-ylidene)-piperidine] the “affinity for the 5-HT2B receptor” value (human 5-HT2B receptor [1]) was “found to have affinity for the 5-HT2B receptor”, the “antagonism at the 5-HT2B receptor” value [2] was “found to be an antagonist at the 5-HT2B receptor” and the “affinity for the 5-HT2B receptor” value (human 5-HT2B receptor [3]) was “found to have affinity for the 5-HT2B receptor”. For the same compound, the “affinity for the human H1 receptor” value [4] was “found to have affinity for the human H1 receptor” and the “antagonism at the human H1 receptor” value (human H1 receptor) was “found to be an antagonist at the human H1 receptor”.
